Data on eight compounds can be found in ChEMBL document CHEMBL2401658, “Selectivity of phenothiazine cholinesterase inhibitors for neurotransmitter systems” (Bioorg Med Chem Lett, 2013).

Each structure is given as a SMILES string.

The target in experiment [1] is Sodium-dependent dopamine transporter (Homo sapiens, UniProt Q01959). Nature of the experiment: Antagonist activity at DAT (unknown origin) by PDSP assay.
The next experiment deals with Cholinesterase (Homo sapiens, UniProt P06276). Nature of the experiment: Inhibition of BuChE (unknown origin).
Sequence of Cholinesterase (P06276 whole entry): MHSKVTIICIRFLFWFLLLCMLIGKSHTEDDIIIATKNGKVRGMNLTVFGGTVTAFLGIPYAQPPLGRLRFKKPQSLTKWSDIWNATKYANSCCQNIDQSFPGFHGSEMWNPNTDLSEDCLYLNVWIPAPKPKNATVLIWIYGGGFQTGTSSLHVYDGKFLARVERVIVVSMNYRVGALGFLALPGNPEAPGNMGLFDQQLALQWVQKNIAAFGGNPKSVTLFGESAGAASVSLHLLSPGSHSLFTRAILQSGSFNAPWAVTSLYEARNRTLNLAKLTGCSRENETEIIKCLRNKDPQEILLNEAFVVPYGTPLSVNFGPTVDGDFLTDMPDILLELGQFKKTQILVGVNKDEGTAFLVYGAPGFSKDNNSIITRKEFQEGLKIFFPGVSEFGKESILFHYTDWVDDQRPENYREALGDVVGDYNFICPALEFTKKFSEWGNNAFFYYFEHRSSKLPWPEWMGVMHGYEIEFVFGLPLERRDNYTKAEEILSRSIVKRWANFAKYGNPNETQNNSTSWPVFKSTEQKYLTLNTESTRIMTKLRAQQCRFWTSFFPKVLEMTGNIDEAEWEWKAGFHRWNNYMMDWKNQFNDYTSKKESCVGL
For experiment [2], the target named is 5-hydroxytryptamine receptor 2B (Homo sapiens, UniProt P41595). Description: Antagonist activity at serotonin 5HT2B receptor (unknown origin) by PDSP assay.
Sequence of 5-hydroxytryptamine receptor 2B (P41595 whole entry): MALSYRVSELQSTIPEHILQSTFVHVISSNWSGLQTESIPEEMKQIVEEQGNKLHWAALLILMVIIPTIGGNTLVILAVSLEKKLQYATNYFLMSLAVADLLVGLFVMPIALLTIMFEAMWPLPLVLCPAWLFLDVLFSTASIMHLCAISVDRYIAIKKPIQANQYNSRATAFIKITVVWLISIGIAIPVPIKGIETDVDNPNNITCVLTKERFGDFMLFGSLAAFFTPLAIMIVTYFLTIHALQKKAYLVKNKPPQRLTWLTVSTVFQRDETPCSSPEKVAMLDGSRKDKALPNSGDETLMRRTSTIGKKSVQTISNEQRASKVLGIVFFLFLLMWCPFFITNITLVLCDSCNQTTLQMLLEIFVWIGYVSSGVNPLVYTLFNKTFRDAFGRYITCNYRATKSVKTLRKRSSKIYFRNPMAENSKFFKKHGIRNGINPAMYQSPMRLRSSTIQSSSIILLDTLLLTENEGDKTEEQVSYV
The target in experiment [3] is T1, 5-hydroxytryptamine receptor 2C (Homo sapiens, UniProt P28335).
T1 sequence (P28335 whole entry): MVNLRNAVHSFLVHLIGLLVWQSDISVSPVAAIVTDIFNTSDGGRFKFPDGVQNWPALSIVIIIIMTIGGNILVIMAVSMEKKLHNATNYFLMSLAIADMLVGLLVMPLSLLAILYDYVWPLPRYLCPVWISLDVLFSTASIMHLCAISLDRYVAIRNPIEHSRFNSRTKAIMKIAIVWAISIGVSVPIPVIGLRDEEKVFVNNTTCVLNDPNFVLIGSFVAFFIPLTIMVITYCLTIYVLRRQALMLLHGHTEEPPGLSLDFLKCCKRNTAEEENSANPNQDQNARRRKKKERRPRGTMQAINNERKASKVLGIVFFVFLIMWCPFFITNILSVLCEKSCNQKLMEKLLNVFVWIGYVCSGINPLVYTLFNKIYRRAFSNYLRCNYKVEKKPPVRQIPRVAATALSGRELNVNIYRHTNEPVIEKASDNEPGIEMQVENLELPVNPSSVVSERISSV
Nature of the experiment: Antagonist activity at serotonin 5HT2C receptor (unknown origin) by PDSP assay.

For experiment [4], the target named is 5-hydroxytryptamine receptor 6 (Homo sapiens, UniProt P50406). Nature of the experiment: Antagonist activity at serotonin 5HT6 receptor (unknown origin) by PDSP assay.
Experiment [5] concerns the target Alpha-1A adrenergic receptor (Homo sapiens, UniProt P35348). Nature of the experiment: Antagonist activity at adrenergic alpha1A receptor (unknown origin) by PDSP assay.
The next experiment deals with D(3) dopamine receptor (Homo sapiens, UniProt P35462). Description: Antagonist activity at dopamine D3 receptor (unknown origin) by PDSP assay.
Sequence of D(3) dopamine receptor (P35462 whole entry): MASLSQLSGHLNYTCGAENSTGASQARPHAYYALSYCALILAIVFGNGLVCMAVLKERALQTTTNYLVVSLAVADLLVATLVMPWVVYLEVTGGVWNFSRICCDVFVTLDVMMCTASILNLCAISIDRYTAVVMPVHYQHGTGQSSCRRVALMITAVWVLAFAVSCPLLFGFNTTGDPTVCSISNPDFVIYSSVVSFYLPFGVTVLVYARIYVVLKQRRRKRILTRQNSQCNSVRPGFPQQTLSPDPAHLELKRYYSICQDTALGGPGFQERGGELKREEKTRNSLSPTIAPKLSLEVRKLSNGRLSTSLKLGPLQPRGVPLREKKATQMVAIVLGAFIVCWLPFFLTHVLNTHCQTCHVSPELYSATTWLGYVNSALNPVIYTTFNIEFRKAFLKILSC
Experiment [6] has as its target T2, 5-hydroxytryptamine receptor 1A (Homo sapiens, UniProt P08908).
T2 sequence (P08908 whole entry): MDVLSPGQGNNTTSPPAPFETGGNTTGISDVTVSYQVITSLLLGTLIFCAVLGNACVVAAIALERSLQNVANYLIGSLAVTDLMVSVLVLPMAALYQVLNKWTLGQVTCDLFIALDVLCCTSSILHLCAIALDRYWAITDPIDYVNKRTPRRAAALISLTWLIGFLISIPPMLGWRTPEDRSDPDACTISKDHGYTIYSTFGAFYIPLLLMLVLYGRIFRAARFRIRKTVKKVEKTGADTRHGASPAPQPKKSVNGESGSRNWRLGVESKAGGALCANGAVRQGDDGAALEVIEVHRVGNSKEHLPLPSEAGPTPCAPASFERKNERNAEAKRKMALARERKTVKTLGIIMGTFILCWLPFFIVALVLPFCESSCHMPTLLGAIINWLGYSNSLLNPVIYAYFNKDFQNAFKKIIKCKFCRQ
Description: Antagonist activity at serotonin 5HT1A receptor (unknown origin) by PDSP assay.

The target of experiment [7] is Beta-3 adrenergic receptor (Homo sapiens, UniProt P13945). Description: Antagonist activity at adrenergic beta3 receptor (unknown origin) by PDSP assay.
Experiment [8] addresses 5-hydroxytryptamine receptor 2A (Homo sapiens, UniProt P28223). Description: Antagonist activity at serotonin 5HT2A receptor (unknown origin) by PDSP assay.
The target in experiment [9] is 5-hydroxytryptamine receptor 1D (Homo sapiens, UniProt P28221). Description: Antagonist activity at serotonin 5HT1D receptor (unknown origin) by PDSP assay.
The target in experiment [10] is Muscarinic acetylcholine receptor M5 (Homo sapiens, UniProt P08912). Nature of the experiment: Antagonist activity at muscarinic M5 receptor (unknown origin) by PDSP assay.
Experiment [11] addresses Muscarinic acetylcholine receptor M3 (Homo sapiens, UniProt P20309). Description: Antagonist activity at muscarinic M3 receptor (unknown origin) by PDSP assay.
Experiment [12] addresses Muscarinic acetylcholine receptor M2 (Homo sapiens, UniProt P08172). Nature of the experiment: Antagonist activity at muscarinic M2 receptor (unknown origin) by PDSP assay.
In experiment [13] the target is 5-hydroxytryptamine receptor 3A (Homo sapiens, UniProt P46098). Description: Antagonist activity at serotonin 5HT3 receptor (unknown origin) by PDSP assay.
Sequence of 5-hydroxytryptamine receptor 3A (P46098 whole entry): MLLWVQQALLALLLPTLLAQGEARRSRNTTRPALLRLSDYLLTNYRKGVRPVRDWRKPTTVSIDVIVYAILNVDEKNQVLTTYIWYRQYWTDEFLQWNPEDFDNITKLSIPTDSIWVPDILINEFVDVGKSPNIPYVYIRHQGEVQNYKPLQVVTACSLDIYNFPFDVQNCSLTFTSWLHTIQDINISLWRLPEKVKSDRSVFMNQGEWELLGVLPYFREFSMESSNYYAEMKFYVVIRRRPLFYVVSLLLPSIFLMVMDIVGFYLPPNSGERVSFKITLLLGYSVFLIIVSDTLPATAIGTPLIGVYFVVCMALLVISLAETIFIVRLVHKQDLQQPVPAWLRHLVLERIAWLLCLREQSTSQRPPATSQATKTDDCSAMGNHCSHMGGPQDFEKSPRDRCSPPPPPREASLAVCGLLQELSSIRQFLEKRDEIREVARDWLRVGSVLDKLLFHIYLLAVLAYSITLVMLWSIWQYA
Experiment [14] has as its target Alpha-2C adrenergic receptor (Homo sapiens, UniProt P18825). Nature of the experiment: Antagonist activity at adrenergic alpha2C receptor (unknown origin) by PDSP assay.
The target of another experiment is Histamine H1 receptor (Homo sapiens, UniProt P35367). Description: Antagonist activity at histamine H1 receptor (unknown origin) by PDSP assay.
A further experiment has as its target Histamine H3 receptor (Homo sapiens, UniProt Q9Y5N1). Nature of the experiment: Antagonist activity at histamine H3 receptor (unknown origin) by PDSP assay.
A further experiment concerns the target Histamine H2 receptor (Homo sapiens, UniProt P25021). Nature of the experiment: Antagonist activity at histamine H2 receptor (unknown origin) by PDSP assay.
The target in experiment [15] is Muscarinic acetylcholine receptor M1 (Homo sapiens, UniProt P11229). Description: Antagonist activity at muscarinic M1 receptor (unknown origin) by PDSP assay.
Sequence of Muscarinic acetylcholine receptor M1 (P11229 whole entry): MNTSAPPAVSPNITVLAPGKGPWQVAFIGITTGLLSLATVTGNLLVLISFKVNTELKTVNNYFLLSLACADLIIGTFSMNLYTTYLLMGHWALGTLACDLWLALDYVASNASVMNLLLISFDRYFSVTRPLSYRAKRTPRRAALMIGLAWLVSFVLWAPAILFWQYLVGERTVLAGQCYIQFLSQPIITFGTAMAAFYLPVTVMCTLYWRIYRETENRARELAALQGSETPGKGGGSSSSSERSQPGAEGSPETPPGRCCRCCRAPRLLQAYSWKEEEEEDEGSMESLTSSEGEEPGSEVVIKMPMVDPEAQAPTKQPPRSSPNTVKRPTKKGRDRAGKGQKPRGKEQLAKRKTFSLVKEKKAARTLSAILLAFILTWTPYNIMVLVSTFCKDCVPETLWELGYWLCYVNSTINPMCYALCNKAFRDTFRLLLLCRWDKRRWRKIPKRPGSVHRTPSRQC
In experiment [16] the target is Muscarinic acetylcholine receptor M4 (Homo sapiens, UniProt P08173). Description: Antagonist activity at muscarinic M4 receptor (unknown origin) by PDSP assay.
Experiment [17] has as its target Alpha-2A adrenergic receptor (Homo sapiens, UniProt P08913). Nature of the experiment: Antagonist activity at adrenergic alpha2A receptor (unknown origin) by PDSP assay.
Experiment [18] has as its target 5-hydroxytryptamine receptor 7 (Homo sapiens, UniProt P34969). Nature of the experiment: Antagonist activity at serotonin 5HT7 receptor (unknown origin) by PDSP assay.
Experiment [19] addresses 5-hydroxytryptamine receptor 5A (Homo sapiens, UniProt P47898). Description: Antagonist activity at serotonin 5HT5A receptor (unknown origin) by PDSP assay.
A further experiment deals with D(1A) dopamine receptor (Homo sapiens, UniProt P21728). Description: Antagonist activity at dopamine D1 receptor (unknown origin) by PDSP assay.
In experiment [20] the target is 5-hydroxytryptamine receptor 1B (Homo sapiens, UniProt P28222). Nature of the experiment: Antagonist activity at serotonin 5HT1B receptor (unknown origin) by PDSP assay.
Experiment [21] deals with Alpha-2B adrenergic receptor (Homo sapiens, UniProt P18089). Description: Antagonist activity at adrenergic alpha2B receptor (unknown origin) by PDSP assay.
The target in experiment [22] is Sodium-dependent serotonin transporter (Homo sapiens, UniProt P31645). Nature of the experiment: Antagonist activity at serotonin transporter (unknown origin) by PDSP assay.
Experiment [23] deals with Alpha-1D adrenergic receptor (Homo sapiens, UniProt P25100). Nature of the experiment: Antagonist activity at adrenergic alpha 1D receptor (unknown origin) by PDSP assay.

Sequence of Sodium-dependent dopamine transporter (Q01959 whole entry): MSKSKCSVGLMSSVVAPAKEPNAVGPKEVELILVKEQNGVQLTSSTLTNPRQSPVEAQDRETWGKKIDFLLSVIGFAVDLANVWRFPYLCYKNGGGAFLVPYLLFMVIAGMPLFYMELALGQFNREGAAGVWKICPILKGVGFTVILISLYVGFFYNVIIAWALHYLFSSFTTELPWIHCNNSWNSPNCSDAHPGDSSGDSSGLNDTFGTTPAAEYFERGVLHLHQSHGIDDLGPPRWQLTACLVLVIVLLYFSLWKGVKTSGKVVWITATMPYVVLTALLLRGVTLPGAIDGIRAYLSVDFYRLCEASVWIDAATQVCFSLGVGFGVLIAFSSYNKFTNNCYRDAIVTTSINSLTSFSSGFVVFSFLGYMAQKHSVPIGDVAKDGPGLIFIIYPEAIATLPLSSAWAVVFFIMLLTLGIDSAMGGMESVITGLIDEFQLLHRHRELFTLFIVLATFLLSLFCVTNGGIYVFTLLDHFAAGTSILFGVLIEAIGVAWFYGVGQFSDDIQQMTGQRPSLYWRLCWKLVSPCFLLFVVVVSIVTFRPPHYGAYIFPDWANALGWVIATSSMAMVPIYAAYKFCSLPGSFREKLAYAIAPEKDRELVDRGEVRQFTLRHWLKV
Sequence of Histamine H2 receptor (P25021 whole entry): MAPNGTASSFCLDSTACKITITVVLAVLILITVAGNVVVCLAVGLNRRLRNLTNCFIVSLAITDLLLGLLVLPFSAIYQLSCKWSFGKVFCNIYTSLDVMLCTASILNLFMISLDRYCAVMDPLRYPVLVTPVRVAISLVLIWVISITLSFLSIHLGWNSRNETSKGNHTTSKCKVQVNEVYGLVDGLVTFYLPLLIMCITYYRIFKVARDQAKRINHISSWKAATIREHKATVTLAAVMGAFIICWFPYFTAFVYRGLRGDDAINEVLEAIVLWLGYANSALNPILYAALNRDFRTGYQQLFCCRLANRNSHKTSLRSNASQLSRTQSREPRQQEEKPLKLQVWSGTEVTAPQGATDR
Sequence of 5-hydroxytryptamine receptor 2A (P28223 whole entry): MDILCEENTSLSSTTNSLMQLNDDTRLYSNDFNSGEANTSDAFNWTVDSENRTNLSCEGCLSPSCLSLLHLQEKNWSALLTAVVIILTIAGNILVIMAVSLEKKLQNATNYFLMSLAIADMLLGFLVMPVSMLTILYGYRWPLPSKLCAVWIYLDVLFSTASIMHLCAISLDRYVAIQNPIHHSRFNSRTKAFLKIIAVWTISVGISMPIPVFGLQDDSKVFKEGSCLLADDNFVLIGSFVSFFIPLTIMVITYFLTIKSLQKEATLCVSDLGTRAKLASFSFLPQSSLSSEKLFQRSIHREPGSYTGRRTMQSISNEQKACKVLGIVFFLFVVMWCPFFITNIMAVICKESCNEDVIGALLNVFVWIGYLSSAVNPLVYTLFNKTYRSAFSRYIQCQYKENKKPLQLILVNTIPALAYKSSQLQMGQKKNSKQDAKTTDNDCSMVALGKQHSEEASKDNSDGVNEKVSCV
Sequence of Alpha-2C adrenergic receptor (P18825 whole entry): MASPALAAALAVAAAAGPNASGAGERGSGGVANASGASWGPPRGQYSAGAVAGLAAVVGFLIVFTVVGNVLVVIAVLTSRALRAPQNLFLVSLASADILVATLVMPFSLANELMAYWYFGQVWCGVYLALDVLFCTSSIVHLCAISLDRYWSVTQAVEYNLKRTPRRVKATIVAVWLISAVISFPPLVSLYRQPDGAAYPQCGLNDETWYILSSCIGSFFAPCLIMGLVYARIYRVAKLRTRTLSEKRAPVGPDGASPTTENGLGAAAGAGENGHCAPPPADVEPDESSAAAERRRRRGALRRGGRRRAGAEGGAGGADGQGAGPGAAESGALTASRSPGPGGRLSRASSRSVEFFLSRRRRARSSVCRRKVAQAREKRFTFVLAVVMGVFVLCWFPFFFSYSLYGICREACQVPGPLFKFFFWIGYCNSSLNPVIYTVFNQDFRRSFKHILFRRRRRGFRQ
Sequence of Histamine H3 receptor (Q9Y5N1 whole entry): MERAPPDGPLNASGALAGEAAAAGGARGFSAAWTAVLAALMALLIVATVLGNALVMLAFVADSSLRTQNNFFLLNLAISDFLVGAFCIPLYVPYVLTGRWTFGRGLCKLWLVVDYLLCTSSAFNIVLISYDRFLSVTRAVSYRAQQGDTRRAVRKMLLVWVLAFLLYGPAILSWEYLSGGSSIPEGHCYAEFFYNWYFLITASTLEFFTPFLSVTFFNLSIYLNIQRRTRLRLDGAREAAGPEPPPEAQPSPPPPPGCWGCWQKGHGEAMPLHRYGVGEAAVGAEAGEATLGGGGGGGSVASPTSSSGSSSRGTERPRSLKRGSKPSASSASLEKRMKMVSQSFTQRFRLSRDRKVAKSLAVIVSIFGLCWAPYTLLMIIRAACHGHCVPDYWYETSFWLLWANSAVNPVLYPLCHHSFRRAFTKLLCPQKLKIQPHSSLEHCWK

`O=C(c1cccc(Br)c1)N1c2ccccc2Sc2ccccc21` gave an inhibitory constant (Ki) in [1] of 0.092 µM.

In the case of `O=C(Oc1cccc2ccccc12)N1c2ccccc2Sc2ccccc21`, the Ki on Cholinesterase turned out to be 0.04 µM; in experiment [1], 3.9 µM.

As for `O=C(Cc1ccc2ccccc2c1)N1c2ccccc2Sc2ccccc21`, the Ki in experiment [2] is 2 µM; on Cholinesterase it was 0.03 µM; in [3], 2.2 µM; in experiment [4], 9.9 µM; in [1] it was 6.6 µM; in experiment [5], 0.33 µM.

With `CC(C(=O)N1c2ccccc2Sc2ccccc21)c1ccccc1` (stereo not drawn), the Ki is 0.17 µM in experiment [2]; 8.9 µM at D(3) dopamine receptor; 0.39 µM in [3]; 1.2 µM in [4]; 1.1 µM in experiment [6]; 2.5 µM in [7]. In experiment [8], this compound displayed an inhibition constant (Ki) of 0.18 µM.

As for `CCN(CC)CCCOC(=O)N1c2ccccc2Sc2ccccc21`, the Ki stood at 0.63 µM in [2]; 2.7 µM in experiment [9]; 0.12 µM in experiment [10]; 0.17 µM in [11]; 1 µM at D(3) dopamine receptor; 0.22 µM in experiment [12]. Moreover, the Ki in [13] came out at 3.9 µM; in [3] it was 3.1 µM; in [14], 0.6 µM; in experiment [6] it was 0.45 µM; in experiment [8], 3.6 µM; on Histamine H1 receptor, 0.43 µM. Besides, the Ki in experiment [1] was 6 µM; at Histamine H3 receptor, 0.96 µM; at Histamine H2 receptor it was 1.4 µM; in experiment [15], 0.064 µM; in experiment [16] it was 0.021 µM.

Regarding `O=C(C1CCCCCC1)N1c2ccccc2Sc2ccccc21`, the Ki was 0.86 µM on Cholinesterase and 1.7 µM in [8].

For `O=C(OCCN1CCCC1)N1c2ccccc2Sc2ccccc21`, the Ki in experiment [2] amounted to 0.1 µM; in [17], 0.095 µM; in [10], 0.006 µM; in experiment [11], 0.066 µM; at D(3) dopamine receptor it was 1 µM; in [12] it was 0.1 µM. Moreover, the Ki in experiment [18] worked out at 0.33 µM; in [13] it was 1.9 µM; in experiment [3] it was 0.94 µM; in [14] it was 0.83 µM; in [19], 2.2 µM; in experiment [6], 1.7 µM. Also, the Ki amounted to 5.9 µM on D(1A) dopamine receptor; 2.2 µM in experiment [20]; 2.4 µM in [8]; 0.029 µM at Histamine H1 receptor; 0.97 µM in experiment [1]; 6 µM on Histamine H3 receptor. Also, the Ki in [21] was found to be 0.8 µM; on Histamine H2 receptor, 0.54 µM; in experiment [15], 0.002 µM; in experiment [16], 0.054 µM.

`O=C(CCCc1ccccc1)N1c2ccccc2Sc2ccccc21`: the Ki in [22] worked out at 3.8 µM; in experiment [7], 1.7 µM; in experiment [8], 1.6 µM; in [1], 3.3 µM; in [23] it was 4.1 µM; on Histamine H2 receptor, 7.5 µM.
